Key:
[1] = test system: MCF-7 human breast cancer tumor cells; test: MCF-7 human breast tumor xenograft in nude mice, Compound 1 with or without tamoxifen; assay type: in vivo
Protocol: Tumor-bearing animals (5 mice/group) were i.v. injected 1 time per week for a total of 3 doses with 10 mL/kg of 10/18 DRD vehicle with or without 180 mg/kg Compound 1. Animals were also implanted with slow release tamoxifen pellets (Tam). In the combination treatment group, animals were dosed with Compound 1 four days after tamoxifen pellets were implanted. Each group that was not dosed with Compound 1 was instead dosed with 10/18 DRD vehicle as a mock treatment. Average tumor volumes for each group were determined every 3-5 days.
The human breast cancer cell line, MCF-7, was obtained from the American Type Culture Collection (Manassas, Va., USA) and grown according to the ATCC guidelines. MCF-7 xenografts were established in twenty nude mice (Charles River Laboratories, Wilmington, Mass., USA) supplemented with slow release estrogen pellets as previously described, using 5×10^6 cells (1), and randomized into treatment groups. Ten days after cells were inoculated half of the animals were supplemented with slow release tamoxifen pellets.
To formulate Compound 1 in 10/18 DRD, stock solutions of the test article were prepared by dissolving the appropriate amounts of the compound in dimethyl sulfoxide (DMSO) by sonication in an ultrasonic water bath. Stock solutions were prepared weekly, stored at −20° C. and diluted fresh each day for dosing. A solution of 20% Cremophor RH40 (polyoxyl 40 hydrogenated castor oil; BASF Corp., Aktiengesellschaft, Ludwigshafen, Germany) in 5% dextrose in water (D5W; Abbott Laboratories, North Chicago, Ill., USA) was also prepared by first heating 100% Cremophor RH40 at 50-60° C. until liquefied and clear, diluting 1:5 with 100% D5W, reheating again until clear and then mixing well. This solution was stored at room temperature for up to 3 months prior to use. To prepare 10/18 DRD formulations for daily dosing, DMSO stock solutions were diluted 1:10 with 20% Cremophor RH40. The final 10/18 DRD formulation for dosing contained 10% DMSO, 18% Cremophor RH40, 3.6% dextrose, 68.4% water and the appropriate amount of test article. Animals were intravenously (i.v.) injected with this formulation at 10 mL per kg body weight on one day each week for a total of 3 doses, four days after tamoxifen pellets were implanted.
The ability of Compound 1 to enhance the in vivo anti-tumor activity of tamoxifen was investigated.

[2] = test system: MCF-7 breast cancer cells; test: Emergence of tamoxifen resistant clones in MCF-7 cell culture; assay type: cell-based, human; conditions: tamoxifen combined with compound 1, MCF-7 cell culture

CC(C)c1cc(-c2nnc(O)n2-c2ccc3c(ccn3C)c2)c(O)cc1O [Compound 1, 3-(2,4-dihydroxy-5-isopropyl-phenyl)-4-(1-methyl-indol-5-yl)-5-hydroxy-[1,2,4]triazole]
adverse finding in dosed animals ([1]; Compound 1 alone cohort, 180 mg/kg i.v., one of the animals, following the first dose, removed from the study): signs of necrosis in the tail | in vivo growth rate of MCF-7 cells (tumor volume) ([1]; Compound 1 alone, 180 mg/kg i.v. 1 time per week, 3 doses, nude mice): moderate reductions in the growth rate | effect in combination with tamoxifen in the treatment of breast cancer ([1]; in combination with tamoxifen, preclinical model): surprising synergistic effect | tumor response (tumor volume) to the combination ([1]; slow release tamoxifen combined with 180 mg/kg Compound 1 i.v. 1 time per week, 3 doses, nude mice): significant tumor regression | emergence of tamoxifen resistant clones [2]: dramatically limited the emergence of tamoxifen resistant clones

CC/C(=C(\c1ccccc1)c1ccc(OCCN(C)C)cc1)c1ccccc1 [tamoxifen, reference compound]
in vivo growth rate of MCF-7 cells (tumor volume) ([1]; slow release tamoxifen pellets alone (10/18 DRD vehicle as mock treatment), nude mice): moderate reductions in the growth rate

— patent publication US20140005145A1, “COMBINATION BREAST CANCER THERAPY WITH HSP90 INHIBITORY COMPOUNDS” (SYNTA PHARMACEUTICALS CORP., priority 2010, published 2014)
